Reference: ChEMBL document CHEMBL1201862, “PubChem BioAssay data set” (2004)
Active and inactive are the calls of the source.

Assays:
[1] = target: T1, Sentrin-specific protease 8 (Homo sapiens, UniProt Q96LD8); type: functional
T1 sequence (Q96LD8 whole entry): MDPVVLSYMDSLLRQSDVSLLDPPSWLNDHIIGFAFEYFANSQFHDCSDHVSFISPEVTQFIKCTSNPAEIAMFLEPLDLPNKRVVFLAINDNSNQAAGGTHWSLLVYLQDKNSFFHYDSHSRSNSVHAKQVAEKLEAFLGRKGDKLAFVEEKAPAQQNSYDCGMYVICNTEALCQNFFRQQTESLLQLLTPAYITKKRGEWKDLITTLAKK

Large T antigen = Large T antigen (Simian virus 40, UniProt P03070); type: functional, Betapolyomavirus macacae;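 also: Confirmatory-stage PubChem screen for compounds that inhibit SV40 T antigen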
[2] = target: T2, Replicative DNA helicase DnaB (Mycobacterium tuberculosis, UniProt P9WMR3); assay: DnaB intein splicing inhibitors, dose response, biochemical, cell-free fluorescence (AID 449749); type: functional
T2 sequence (P9WMR3 whole entry): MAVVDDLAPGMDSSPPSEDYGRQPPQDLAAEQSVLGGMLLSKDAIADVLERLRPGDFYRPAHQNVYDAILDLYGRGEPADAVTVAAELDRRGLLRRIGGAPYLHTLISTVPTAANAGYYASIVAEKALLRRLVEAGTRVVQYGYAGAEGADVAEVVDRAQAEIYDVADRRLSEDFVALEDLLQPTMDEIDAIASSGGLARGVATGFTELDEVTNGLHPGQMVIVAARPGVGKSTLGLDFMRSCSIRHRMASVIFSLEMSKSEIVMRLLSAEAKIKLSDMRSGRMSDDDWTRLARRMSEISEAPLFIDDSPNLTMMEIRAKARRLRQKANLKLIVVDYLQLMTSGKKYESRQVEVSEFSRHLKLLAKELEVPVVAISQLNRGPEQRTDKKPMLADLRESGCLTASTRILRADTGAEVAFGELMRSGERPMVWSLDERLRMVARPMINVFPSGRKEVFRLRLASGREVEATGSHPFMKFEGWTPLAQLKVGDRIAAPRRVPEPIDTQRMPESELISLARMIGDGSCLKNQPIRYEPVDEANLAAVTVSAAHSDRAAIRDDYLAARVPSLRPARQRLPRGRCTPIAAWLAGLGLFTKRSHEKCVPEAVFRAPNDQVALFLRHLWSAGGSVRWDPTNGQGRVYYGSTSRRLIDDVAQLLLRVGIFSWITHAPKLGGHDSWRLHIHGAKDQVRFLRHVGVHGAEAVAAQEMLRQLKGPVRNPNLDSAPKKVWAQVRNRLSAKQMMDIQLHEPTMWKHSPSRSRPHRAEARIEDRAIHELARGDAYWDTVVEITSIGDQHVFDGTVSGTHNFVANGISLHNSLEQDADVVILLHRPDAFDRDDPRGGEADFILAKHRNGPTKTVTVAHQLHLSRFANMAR

Protein RecA = target: T3, Protein RecA (Mycobacterium tuberculosis, UniProt P9WHJ3); assay: Fluorescence Cell-Free Homogeneous Dose Retest to Identify Inhibitors of RecA-Intein Splicing Activity. [Related pubchem assays (depositor defined):AID2097, AID2223, AID489010, AID492950]; type: functional
T3 sequence (P9WHJ3 whole entry): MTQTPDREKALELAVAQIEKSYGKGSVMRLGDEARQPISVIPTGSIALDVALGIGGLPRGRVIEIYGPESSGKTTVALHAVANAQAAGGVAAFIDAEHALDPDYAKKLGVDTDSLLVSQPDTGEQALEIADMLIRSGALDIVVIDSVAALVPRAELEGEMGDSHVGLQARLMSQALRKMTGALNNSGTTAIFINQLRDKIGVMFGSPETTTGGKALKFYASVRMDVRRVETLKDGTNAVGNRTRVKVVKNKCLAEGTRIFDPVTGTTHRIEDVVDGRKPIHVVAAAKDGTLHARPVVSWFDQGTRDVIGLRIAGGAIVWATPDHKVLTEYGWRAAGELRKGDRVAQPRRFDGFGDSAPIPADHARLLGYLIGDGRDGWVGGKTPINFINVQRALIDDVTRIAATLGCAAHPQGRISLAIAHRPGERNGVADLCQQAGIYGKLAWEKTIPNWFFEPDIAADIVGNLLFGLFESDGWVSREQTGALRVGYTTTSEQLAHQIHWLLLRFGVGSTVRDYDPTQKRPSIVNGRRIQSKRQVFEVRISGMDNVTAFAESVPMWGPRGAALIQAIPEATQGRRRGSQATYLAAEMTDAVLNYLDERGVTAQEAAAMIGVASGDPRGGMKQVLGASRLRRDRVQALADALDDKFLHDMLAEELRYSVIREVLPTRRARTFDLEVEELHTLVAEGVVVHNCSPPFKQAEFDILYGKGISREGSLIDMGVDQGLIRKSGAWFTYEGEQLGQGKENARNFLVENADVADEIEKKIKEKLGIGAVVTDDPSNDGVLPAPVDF

[3] = target: T1, Sentrin-specific protease 8; type: functional; remark: listed apart in the source
[4] = target: T4, RNA-binding protein pos-1 (Caenorhabditis elegans, UniProt G5EF15); assay: inhibitors of POS-1/mex-3 RNA binding, dose response, biochemical, fluorescence polarization (AID 1964);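 also: purified POS-1 fused to maltose binding protein made in E. coli; potency of compounds blocking POS-1 binding to fluorescent RNA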
T4 sequence (G5EF15 whole entry): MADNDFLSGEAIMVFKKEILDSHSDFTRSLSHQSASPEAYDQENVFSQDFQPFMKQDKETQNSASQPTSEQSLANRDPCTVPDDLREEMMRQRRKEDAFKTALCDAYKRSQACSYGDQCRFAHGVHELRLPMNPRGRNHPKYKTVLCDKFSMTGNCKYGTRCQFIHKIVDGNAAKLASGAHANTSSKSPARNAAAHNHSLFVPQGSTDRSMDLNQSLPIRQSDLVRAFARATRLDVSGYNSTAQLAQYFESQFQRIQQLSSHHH

[5] = target: T5, Zinc finger protein mex-5 (Caenorhabditis elegans, UniProt Q9XUB2); assay: MEX-5/TCR-2 RNA interaction inhibitors, dose response, biochemical, C. elegans, fluorescence polarization (AID 1960)
T5 sequence (Q9XUB2 whole entry): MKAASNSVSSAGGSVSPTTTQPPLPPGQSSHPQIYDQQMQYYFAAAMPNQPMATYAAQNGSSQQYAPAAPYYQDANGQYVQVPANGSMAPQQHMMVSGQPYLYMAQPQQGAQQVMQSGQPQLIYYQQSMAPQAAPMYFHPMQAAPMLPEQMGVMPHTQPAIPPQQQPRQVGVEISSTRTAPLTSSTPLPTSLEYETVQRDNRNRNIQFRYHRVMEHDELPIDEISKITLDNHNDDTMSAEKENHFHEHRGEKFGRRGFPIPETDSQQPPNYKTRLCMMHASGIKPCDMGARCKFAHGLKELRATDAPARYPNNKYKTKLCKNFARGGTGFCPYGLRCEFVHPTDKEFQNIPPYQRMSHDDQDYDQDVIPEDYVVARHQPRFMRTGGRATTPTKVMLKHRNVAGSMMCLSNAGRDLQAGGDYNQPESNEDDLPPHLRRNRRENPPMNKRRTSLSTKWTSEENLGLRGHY

A549 = assay: A549 cell toxicity, dose response, cytotoxicity control, plate reader, cherry-pick samples (AID 687028); type: functional, cell-based; details: Homo sapiens
[6] = A2780 ovarian cancer cell cytotoxicity, dose response, cytotoxicity control, plate reader, dry powder samples (AID 743046); type: functional, cell-based
[7] = cytotoxicity in OVCAR8 ovarian cancer cells, dose response, PAX8 project, cell-based, plate reader, dry powder samples (AID 743197); type: functional; details: OVCAR-8
[8] = IGROV1 ovarian cancer cell cytotoxicity, dose response, PAX8 inhibitor project, plate reader, dry powder samples (AID 743043); type: functional, cell-based; details: IGROV-1
Paired box protein Pax-8 = Paired box protein Pax-8 (Homo sapiens, UniProt Q06710); assay: inhibitors of PAX8-driven TPO luciferase reporter, dose response, RMG-I cells, cherry-pick (AID 687027); type: functional, cell-based;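 also: luciferase reporter driven by Pax8 target thyroperoxidase promoter measured by SteadyGlo luminescence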
[9] = inhibitors of CMV-promoter luciferase reporter, dose response, counter-screen for Pax8 inhibitor project, cell-based, HEK293, luminescence, dry powder (AID 743020); type: functional
[10] = NIH:OVCAR-3 ovarian cancer cell cytotoxicity, dose response, PAX8 inhibitor project, plate reader, dry powder samples (AID 743044); type: functional, cell-based
[11] = target: Botulinum neurotoxin type F (Clostridium botulinum, UniProt P30996); assay: High-throughput multiplex microsphere dose response for inhibitors of toxin protease, specifically Botulinum neurotoxin light chain F protease, compounds from Cherry Pick 02.; type: functional; details: read-out: EC50_MICROM
[12] = target: Nuclear receptor subfamily 0 group B member 1 (Homo sapiens, UniProt P51843); type: functional, cell-based;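 also: HEK293T cells transfected with SF-1 and DAX-1 plus StAR promoter luciferase reporter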
cells = type: functional, cell-based

Chain of Nuclear receptor subfamily 0 group B member 1 (P51843 whole entry): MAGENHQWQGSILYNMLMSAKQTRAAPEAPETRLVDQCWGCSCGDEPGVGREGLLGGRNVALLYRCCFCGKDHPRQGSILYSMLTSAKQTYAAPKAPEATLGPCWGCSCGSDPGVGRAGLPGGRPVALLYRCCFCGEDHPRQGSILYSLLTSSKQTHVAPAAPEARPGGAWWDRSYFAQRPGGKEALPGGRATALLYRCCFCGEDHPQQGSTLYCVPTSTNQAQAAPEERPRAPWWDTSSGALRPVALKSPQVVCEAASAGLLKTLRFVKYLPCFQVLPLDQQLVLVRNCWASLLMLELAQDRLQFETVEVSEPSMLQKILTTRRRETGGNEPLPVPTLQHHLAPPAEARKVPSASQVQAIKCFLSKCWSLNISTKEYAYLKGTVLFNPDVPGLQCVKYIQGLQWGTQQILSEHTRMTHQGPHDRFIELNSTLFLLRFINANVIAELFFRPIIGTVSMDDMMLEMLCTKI
Chain of Paired box protein Pax-8 (Q06710 whole entry): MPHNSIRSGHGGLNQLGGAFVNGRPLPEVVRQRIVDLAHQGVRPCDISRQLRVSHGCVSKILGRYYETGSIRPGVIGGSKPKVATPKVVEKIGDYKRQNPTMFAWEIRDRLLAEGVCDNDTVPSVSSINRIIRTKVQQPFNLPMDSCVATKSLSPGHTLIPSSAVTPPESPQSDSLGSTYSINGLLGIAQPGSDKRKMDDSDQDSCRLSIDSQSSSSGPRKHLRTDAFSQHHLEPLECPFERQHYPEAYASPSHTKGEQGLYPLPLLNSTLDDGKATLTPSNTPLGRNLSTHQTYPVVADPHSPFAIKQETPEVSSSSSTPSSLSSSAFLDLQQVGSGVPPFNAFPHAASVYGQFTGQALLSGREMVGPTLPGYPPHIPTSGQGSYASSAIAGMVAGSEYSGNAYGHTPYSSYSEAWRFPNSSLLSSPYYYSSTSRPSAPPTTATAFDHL
Chain of Large T antigen (P03070 whole entry): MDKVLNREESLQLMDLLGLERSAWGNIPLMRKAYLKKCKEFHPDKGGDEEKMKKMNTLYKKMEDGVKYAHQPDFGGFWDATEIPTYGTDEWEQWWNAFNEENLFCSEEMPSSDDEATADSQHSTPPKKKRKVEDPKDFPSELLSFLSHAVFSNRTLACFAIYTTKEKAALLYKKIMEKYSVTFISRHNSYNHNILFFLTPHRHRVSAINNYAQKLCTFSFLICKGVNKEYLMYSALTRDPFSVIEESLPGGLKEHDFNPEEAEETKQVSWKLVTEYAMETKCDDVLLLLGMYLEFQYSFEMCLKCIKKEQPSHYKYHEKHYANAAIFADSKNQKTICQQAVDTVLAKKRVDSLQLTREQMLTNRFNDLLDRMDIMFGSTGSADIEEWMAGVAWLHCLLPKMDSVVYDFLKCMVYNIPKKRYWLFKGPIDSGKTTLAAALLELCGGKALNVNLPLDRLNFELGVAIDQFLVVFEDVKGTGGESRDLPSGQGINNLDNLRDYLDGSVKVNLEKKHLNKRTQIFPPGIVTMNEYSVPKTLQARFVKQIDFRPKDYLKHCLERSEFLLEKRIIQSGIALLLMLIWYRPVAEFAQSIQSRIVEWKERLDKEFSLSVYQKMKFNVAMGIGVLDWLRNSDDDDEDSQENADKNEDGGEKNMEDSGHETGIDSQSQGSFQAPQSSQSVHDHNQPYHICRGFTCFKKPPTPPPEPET
Chain of Botulinum neurotoxin type F (P30996 1-436 limits assumed): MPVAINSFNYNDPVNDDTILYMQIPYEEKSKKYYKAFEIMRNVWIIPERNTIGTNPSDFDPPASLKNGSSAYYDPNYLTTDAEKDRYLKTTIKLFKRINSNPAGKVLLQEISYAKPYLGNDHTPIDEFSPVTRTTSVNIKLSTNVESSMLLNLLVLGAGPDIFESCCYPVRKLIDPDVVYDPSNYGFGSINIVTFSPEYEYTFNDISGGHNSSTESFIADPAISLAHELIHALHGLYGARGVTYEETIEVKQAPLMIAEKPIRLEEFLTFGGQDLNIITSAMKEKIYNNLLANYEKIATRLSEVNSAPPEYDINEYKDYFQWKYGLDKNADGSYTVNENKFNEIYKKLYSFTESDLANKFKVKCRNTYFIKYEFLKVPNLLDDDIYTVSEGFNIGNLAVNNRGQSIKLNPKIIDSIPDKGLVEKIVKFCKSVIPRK

CCOc1cc(C(c2c(C)[nH][nH]c2=O)c2c(C)[nH][nH]c2=O)ccc1O
IC50 [1]: 21.4 µM (active)
IC50 (Large T antigen): > 100 µM (active)
AC50 [2]: 0.302 µM (active)
EC50 (Protein RecA): 0.24 µM (active)
IC50 [3]: 16.2 µM (active)
EC50 [4]: 57.9 µM (active)
EC50 [5]: 107 µM (active)

CCN(c1ccccc1)S(=O)(=O)c1ccc(OC)c(NC(=O)C2CCC2)c1
AC50 (A549): 35.7 µM (active)

C[C@@H]1CCCCO[C@H](CN(C)Cc2ccc(C(F)(F)F)cc2)[C@@H](C)CN([C@@H](C)CO)C(=O)c2cc(NC(=O)Nc3ccc(F)cc3)ccc2O1
AC50 [6]: 51.7 µM (active)
AC50 [7]: 32.1 µM (active)
AC50 [8]: 43.6 µM (active)
AC50 (Paired box protein Pax-8): 5.36 µM (active)
AC50 [9]: 35.7 µM (active)
AC50 [10]: 21.4 µM (active)

COc1ccccc1Cc1c(-c2ccc(C)cc2)nc2cc(C)c(Br)c(C)n12
EC50 [11]: > 20 µM (inactive)

O=C(COc1ccccc1)Nc1cccc(-c2ccc(N3CCOCC3)nn2)c1
IC50 [12]: > 67.5 µM (inactive)
IC50 (cells): > 67.5 µM (inactive)
